Measurements reported in doi:10.1101/2022.02.04.479134, “A Suite of TMPRSS2 Assays for Screening Drug Repurposing Candidates as Potential Treatments of COVID-19” (bioRxiv, 2022).
“Also recorded” adds a separate entry of the source. Structures can show the parent of a compound that is named as a salt. Where two headings read alike, the source gives them in different places.

How the values were obtained:
[1] = system: SARS-CoV-2 spike pseudotyped particles (Delta variant B.1.617.2) entry into Calu-3 cells; assay: microbe, parasite or virus in culture; assay type: cell-based; settings: for inhibition of pseudotyped particle entry: variant not stated; for Emax: Severe acute respiratory syndrome coronavirus 2, Calu-3, read-out: SARS-CoV-2 PP (Delta) Max Response; for AC50: 48 h, N/D = Not Detected, read-out: SARS-CoV-2 PP (Delta) AC50; for SARS-CoV-2 PP (Delta) Max Response: PP wells 0%, bald PP −100%
[2] = system: SARS-CoV-2 spike pseudotyped particles (WA1 + D614G) entry into Calu-3 cells; assay type: cell-based; settings: for AC50: read-out: SARS-CoV-2 PP (WA1 + D614G) AC50
[3] = Severe acute respiratory syndrome coronavirus 2, Calu-3 cells
[4] = Calu-3 cells, read-out: IC50 Delta pseudotyped particle entry
[5] = Severe acute respiratory syndrome coronavirus 2, Calu-3, read-out: IC50 Delta pseudotyped particle entry, Calu-3 cells
[6] = Severe acute respiratory syndrome coronavirus 2, Calu-3, variant not given, matches Delta values, read-out: IC50 blocking of entry into Calu-3 cells using pseudotyped particles with SARS-CoV-2 spike protein

Row | Molecule | Emax [1] [%] | AC50 [1, 3] [µM] | SARS-CoV-2 PP (WA1 + D614G) Max Response [2] [%] | AC50 [2] [µM] | further results
1 | O=c1ccc2ccc(O)cc2o1 [7-Hydroxycoumarin] |  |  |  |  | inhibition of pseudotyped particle entry ([1]; Calu-3 cells): lack of activity; also recorded: nor any inhibition of pseudotyped particle entry
2 | CC(C)C[C@H](NC(=O)[C@H](Cc1ccccc1)NC(=O)c1cnccn1)B(O)O [Bortezomib] | -100 | < 0.05 | -100 | < 0.05 | IC50 ([1]; Severe acute respiratory syndrome coronavirus 2, Calu-3, Calu-3 cells, apparent, due to cytotoxicity, read-out: IC50 inhibition of viral entry (variant not stated)): < 50 nM
3 | CN(C)C(=O)COC(=O)Cc1ccc(OC(=O)c2ccc(NC(=N)N)cc2)cc1 [Camostat] | -92 | 0.059 | -95 | 0.05 | IC50 [1, 4]: 59 nM; IC50 [1, 5]: 58.8 nM; IC50 ([2]; read-out: IC50 WA1 + D614G pseudotyped particle entry): 50 nM
4 | NC[C@H]1CC[C@H](C(=O)Oc2ccc(CCC(=O)O)cc2)CC1 [Cetraxate HCl] | 30 | 23.3 |  |  | 
5 | N=C(N)c1cccc(CC(NS(=O)(=O)c2cccc(-c3ccc(Cl)cc3Cl)c2)C(=O)N2CCC(CCN)CC2)c1 (centres unmarked) [Cmpd 92 (Meyer)] | 92 | 3.98 | -70 | 2.05 | IC50 [1, 6]: 4000 nM
6 | N=C(N)c1cccc(CC(NS(=O)(=O)c2cccc(-c3ccc(Cl)cc3Cl)c2)C(=O)N2CCC(NC(=O)NC3CCCCC3)CC2)c1 (centres unmarked) [Cmpd 114 (Meyer)] | 99 | 15.3 | -88 | 5.35 | IC50 [1, 6]: 15000 nM
7 | COC(=O)N[C@H](C(=O)N1CCC[C@H]1c1nc(-c2ccc(-c3ccc(-c4c[nH]c([C@@H]5CCCN5C(=O)[C@@H](NC(=O)OC)C(C)C)n4)cc3)cc2)c[nH]1)C(C)C [Daclatasvir dihydrochloride] | -100 | 32.9 | -100 | 39 | 
8 | CCOC(=O)c1ccc(OC(=O)CCCCCNC(=N)N)cc1 [Gabexate mesilate] |  |  |  |  | inhibition of pseudotyped particle entry ([1]; Calu-3 cells): inactive
9 | N=C(N)c1ccc2cc(OC(=O)c3ccc(N=C(N)N)cc3)ccc2c1 [Nafamostat mesilate] | -100 | 0.0014 | -100 |  | IC50 [1, 4]: 1.4 nM; IC50 [1, 5]: 1.42 nM
10 | COC(=O)[C@H](Cc1cccc(C(=N)N)c1)[C@@H](C)NC(=O)c1ccc(-c2cc[n+]([O-])cc2)cc1 [Otamixaban] | 54 | 18 | -50 | 20 | 
11 | N=C(N)c1ccc2nc(-c3cc(CC(=O)N[C@@H](CC(=O)O)C(=O)O)cc(-c4cc(S(N)(=O)=O)ccc4O)c3O)[nH]c2c1 [PCI-27483] | -66 | 15.8 | -66 | 16.5 | 
12 | AGN194310 |  |  | -87 | 22 | AC50 ([1]; Calu-3 cells): 38.4 µM; SARS-CoV-2 PP (Delta) Max Response ([1]; Calu-3 cells): -86%
13 | Dibromopropamidine Dihydrochloride |  |  | -44 | 19.5 | AC50 ([1]; Calu-3 cells): 19.2 µM; SARS-CoV-2 PP (Delta) Max Response ([1]; Calu-3 cells): -49%
14 | G-007-LK |  |  | -73 | 0.5 | AC50 ([1]; Calu-3 cells): 1 µM; SARS-CoV-2 PP (Delta) Max Response ([1]; Calu-3 cells): -67%
15 | Marizomib / Salinosporamide A |  |  | -100 | < 0.05 | AC50 ([1]; Calu-3 cells): < 0.05 µM; SARS-CoV-2 PP (Delta) Max Response ([1]; Calu-3 cells): -100%
